Data taken from ChEMBL document CHEMBL1201862, “PubChem BioAssay data set” (2004).
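Growth conditions: 96-well plates. Treatment: test compound, 48 hours, 5 concentrations. Analysis: linear interpolation between bracketing concentrations; unreached endpoints set to highest concentration. GI50 = concentration required for 50% inhibition of growth.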 Activity calls are given as the source filed them. Rule as the data show it: active = GI50 up to about 1.1 µM and inactive = higher.

Key:
Assay in all cases: NCI anticancer screen, dose series, 48 h
NCI-H460 = tested on: NCI-H460
UO-31 = tested on: UO-31
SK-OV-3 = tested on: SK-OV-3
NCI-H226 = tested on: NCI-H226
SNB-19 = tested on: SNB-19
OVCAR-4 = tested on: OVCAR-4
SW-620 = tested on: SW-620
NCI-H522 = tested on: NCI-H522
CAKI-1 = tested on: CAKI-1
COLO 205 = tested on: COLO 205
RPMI-8226 = tested on: RPMI-8226
HOP-62 = tested on: HOP-62
UACC-257 = tested on: UACC-257
SF-268 = tested on: SF-268
SK-MEL-2 = tested on: SK-MEL-2
A549 = tested on: A549
SK-MEL-5 = tested on: SK-MEL-5
KM12 = tested on: KM12
ACHN = tested on: ACHN
M14 = tested on: M14

Measured: GI50

CC(C)C1NC(=O)CC(c2ccccc2)N(N=O)C1c1ccccc1 (stereo not drawn)
inactive: NCI-H460 > 100 µM | UO-31 > 100 µM | SK-OV-3 > 61.1 µM | NCI-H226 > 100 µM | SNB-19 > 100 µM | OVCAR-4 > 100 µM | SW-620 > 100 µM | NCI-H522 37.5 µM | CAKI-1 > 100 µM | COLO 205 > 100 µM | RPMI-8226 81.8 µM | HOP-62 > 100 µM | UACC-257 > 100 µM | SF-268 > 100 µM | SK-MEL-2 > 100 µM | A549 > 100 µM | SK-MEL-5 > 83.6 µM | KM12 > 100 µM

CC1(C)C(=O)c2ccccc2OC1N1CCN(C2Oc3ccccc3C(=O)C2(C)C)CC1 (stereo not drawn)
inactive: NCI-H460 > 100 µM | UO-31 > 100 µM | SK-OV-3 > 100 µM | NCI-H226 > 100 µM | SNB-19 > 100 µM | OVCAR-4 > 100 µM | SW-620 > 100 µM | NCI-H522 > 100 µM | CAKI-1 > 100 µM | COLO 205 > 100 µM | RPMI-8226 > 100 µM | ACHN > 100 µM | HOP-62 > 100 µM | SF-268 > 100 µM | SK-MEL-5 > 100 µM | M14 > 100 µM | KM12 > 100 µM

c1ccc(/N=C2\S/C(=N\C3CCCCC3)N(C3CCCCC3)\C2=N/c2ccccc2)cc1
inactive: NCI-H460 > 100 µM | UO-31 > 100 µM | SK-OV-3 > 100 µM | NCI-H226 > 100 µM | SNB-19 > 100 µM | NCI-H522 > 100 µM | CAKI-1 > 100 µM | COLO 205 > 100 µM | RPMI-8226 > 100 µM | HOP-62 > 100 µM | SK-MEL-2 > 100 µM | SK-MEL-5 80.4 µM | M14 > 100 µM | KM12 > 100 µM

Cc1nc(-c2cccnc2)sc1C(=O)CC(=O)C(=O)Nc1cccc(NC(=O)C(=O)CC(=O)c2sc(-c3cccnc3)nc2C)n1
inactive: NCI-H460 > 100 µM | UO-31 > 100 µM | SK-OV-3 > 100 µM | NCI-H226 > 100 µM | SNB-19 > 100 µM | OVCAR-4 > 100 µM | SW-620 > 100 µM | NCI-H522 > 100 µM | CAKI-1 > 100 µM | COLO 205 > 100 µM | RPMI-8226 > 100 µM | ACHN > 100 µM | UACC-257 > 100 µM | SF-268 > 100 µM | SK-MEL-2 > 100 µM | A549 > 100 µM | SK-MEL-5 > 100 µM | M14 > 100 µM | KM12 > 100 µM

COc1cc(C2c3cc4c(cc3OC3(O)COC(=O)C23)OCO4)cc(OC)c1OC (stereo not drawn)
inactive: NCI-H460 56.2 µM | UO-31 34.7 µM | SK-OV-3 25.1 µM | NCI-H226 32.6 µM | SNB-19 53.5 µM | OVCAR-4 > 100 µM | SW-620 35 µM | NCI-H522 22.7 µM | CAKI-1 51.3 µM | RPMI-8226 58.2 µM | ACHN 53 µM | HOP-62 62.7 µM | UACC-257 55 µM | SF-268 85.3 µM | SK-MEL-2 > 100 µM | A549 67.5 µM | SK-MEL-5 > 10 µM | M14 34.7 µM

CO/C=C1\OC(=O)C=C1OC
inactive: NCI-H460 > 100 µM | UO-31 > 100 µM | SK-OV-3 > 100 µM | NCI-H226 > 100 µM | SNB-19 > 100 µM | OVCAR-4 > 100 µM | SW-620 > 100 µM | NCI-H522 > 100 µM | CAKI-1 > 100 µM | COLO 205 > 100 µM | RPMI-8226 > 100 µM | UACC-257 > 100 µM | SF-268 > 100 µM | SK-MEL-2 > 100 µM | A549 > 100 µM | SK-MEL-5 > 100 µM | KM12 > 100 µM
